{
  "source": "patent US12636274B2",
  "about": "“Pharmaceutical compositions and methods for systemic treatment of solid tumors” (7 HILLS INTERESTS LLC, priority 2014, dated 2026)",
  "key": {"[1]": {"test_system": "CT26 colon cancer syngeneic tumor", "assay": "Study 1: CT26 syngeneic tumor model in Balb/c mice", "format": "in vivo, Mouse (Mus musculus)", "method": "(§1) Mouse colon carcinoma CT26 cells were obtained from American Type Culture Collection (ATCC), USA. Cells were grown in RPMI-1640 medium (Sigma, Cat # R6504) supplemented with 10% FBS (Invitrogen, Cat #10438-026), and 1% penicillin streptomycin (Thermo Fisher Scientific, Cat #15140-122). To establish allografts, 1 million CT26 cells were suspended in 50 μL of serum-free medium and mixed at 1:1 ratio with matrigel before implanting subcutaneously into the right flank of mice.\n(§2) Prior to inoculation, the skin on the injection site was swabbed with alcohol. To establish allografts, CT26 cells were suspended in serum free medium at a concentration of (1×10^6)/50 μL, mixed with equal volume of matrigel (1:1 ratio) and 100 μL of this mixture was injected to each mouse by subcutaneous implantation using a 1 mL BD syringe attached to a 24 gauge needle.\n(§3) CT26 tumor xenografts were measured after approximately 1 week of cell inoculation when they become palpable. When the average tumor volume reaches around 110 mm^3, animals were randomized into treatment groups group maintaining the average tumor volume of each group similar across groups for Study 1 and Study 2. In Study 3, the animals were randomized on the basis of body weights +1 day post cell implantation.\n(§4) Tumor dimensions (length and breadth) were measured on days 0 (animal randomization based on tumor volume) and thrice weekly thereafter until study termination. Tumor volumes were calculated using the formula (b^2*l)*0.52 where l=length, b=breadth (Dusan Djokovic et al., BMC Cancer, 2010, 10:641). Tumor growth inhibition was calculated after normalizing the tumor volume on a given day to that on day 1.\n(§5) Mean body weight loss and percent changes were calculated for each group. Similarly, mean tumor volume and percent tumor growth inhibition were calculated. The percent tumor growth inhibition (% TGI) as a function of anti-tumor efficacy were computed with respect to untreated vehicle control by comparing to the tumor volumes of day 1 using formula described below: % TGI=[1−(Treatment TVFinal−Treatment TVInitial)/(Control TVFinal−Control TVInitial)]*100\nThe test agent, Compound 1 was evaluated in CT26 syngeneic tumor model in Balb/c mice. Compound 1 was administered in mice when the starting tumor volume reached 109±7.1 mm^3 eight days after implantation of CT26 cells."}, "[2]": {"test_system": "CT26 colon cancer syngeneic tumor", "assay": "Study 3: CT26 syngeneic tumor model in Balb/c mice, treatment from +1 day after implantation", "format": "in vivo, Mouse (Mus musculus)", "method": "as §1, §2, §3, §4, §5\nThe test agent, Compound 1 was evaluated in CT26 syngeneic tumor model in Balb/c mice. Compound 1 was administered in mice +1 day after CT26 cell implantation. Tumors were not measurable at this time, however, tumors became palpable on day 7 and tumors were measured from that point."}, "ICAM-1": {"test_system": "ICAM-1", "assay": "Cell migration across ICAM-1 membrane toward SDF-1", "format": "cell-based", "details": "FIG. 5; different concentrations; SDF-1 in bottom part", "method": "Referring now to FIG. 5, an apparatus for testing VCAM-1 and ICAM-1 cell migration, where the cells are initially placed in the top part of the apparatus including a member including VCAM-1 or ICAM-1, with the bottom part of the apparatus initially including SDF-1. Cell migration is then measured from top part to the bottom part for different concentration of CDPD 1, a compound of Formula (I) of VCAM-1 and ICAM-1 impregnated membrane."}, "[3]": {"assay": "Safety margin (STD 10) and autoimmune toxicity", "details": "in vivo"}, "VLA-4/VCAM-1": {"biological_target": "VLA-4/VCAM-1 (Homo sapiens, UniProt P05556+P13612)", "sequence (P13612 34-1032)": "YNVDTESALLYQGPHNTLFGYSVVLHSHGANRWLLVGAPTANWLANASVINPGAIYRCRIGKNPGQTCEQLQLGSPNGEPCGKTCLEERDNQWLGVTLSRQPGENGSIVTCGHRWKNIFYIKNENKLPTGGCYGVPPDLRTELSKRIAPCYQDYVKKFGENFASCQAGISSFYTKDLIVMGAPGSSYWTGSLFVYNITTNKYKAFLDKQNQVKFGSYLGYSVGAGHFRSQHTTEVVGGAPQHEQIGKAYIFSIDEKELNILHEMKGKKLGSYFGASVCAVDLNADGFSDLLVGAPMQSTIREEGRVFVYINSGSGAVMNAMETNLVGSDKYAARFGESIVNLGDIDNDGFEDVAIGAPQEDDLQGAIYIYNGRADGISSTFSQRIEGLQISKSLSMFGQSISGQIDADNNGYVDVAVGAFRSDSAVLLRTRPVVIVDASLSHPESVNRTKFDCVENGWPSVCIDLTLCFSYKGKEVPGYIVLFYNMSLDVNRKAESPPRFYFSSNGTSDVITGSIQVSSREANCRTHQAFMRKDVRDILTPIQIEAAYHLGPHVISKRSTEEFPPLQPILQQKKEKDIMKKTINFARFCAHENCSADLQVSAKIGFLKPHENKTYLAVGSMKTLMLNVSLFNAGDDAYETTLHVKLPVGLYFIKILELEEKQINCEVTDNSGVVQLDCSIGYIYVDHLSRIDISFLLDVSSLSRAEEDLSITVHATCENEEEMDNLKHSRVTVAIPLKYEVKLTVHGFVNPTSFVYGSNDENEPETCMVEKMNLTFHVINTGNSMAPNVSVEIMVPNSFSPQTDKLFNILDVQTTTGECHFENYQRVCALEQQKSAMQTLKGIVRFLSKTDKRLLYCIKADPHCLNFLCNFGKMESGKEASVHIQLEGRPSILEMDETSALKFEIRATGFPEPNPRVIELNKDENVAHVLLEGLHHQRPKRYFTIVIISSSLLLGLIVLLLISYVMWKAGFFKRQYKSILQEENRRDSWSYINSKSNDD", "sequence (P05556 21-798)": "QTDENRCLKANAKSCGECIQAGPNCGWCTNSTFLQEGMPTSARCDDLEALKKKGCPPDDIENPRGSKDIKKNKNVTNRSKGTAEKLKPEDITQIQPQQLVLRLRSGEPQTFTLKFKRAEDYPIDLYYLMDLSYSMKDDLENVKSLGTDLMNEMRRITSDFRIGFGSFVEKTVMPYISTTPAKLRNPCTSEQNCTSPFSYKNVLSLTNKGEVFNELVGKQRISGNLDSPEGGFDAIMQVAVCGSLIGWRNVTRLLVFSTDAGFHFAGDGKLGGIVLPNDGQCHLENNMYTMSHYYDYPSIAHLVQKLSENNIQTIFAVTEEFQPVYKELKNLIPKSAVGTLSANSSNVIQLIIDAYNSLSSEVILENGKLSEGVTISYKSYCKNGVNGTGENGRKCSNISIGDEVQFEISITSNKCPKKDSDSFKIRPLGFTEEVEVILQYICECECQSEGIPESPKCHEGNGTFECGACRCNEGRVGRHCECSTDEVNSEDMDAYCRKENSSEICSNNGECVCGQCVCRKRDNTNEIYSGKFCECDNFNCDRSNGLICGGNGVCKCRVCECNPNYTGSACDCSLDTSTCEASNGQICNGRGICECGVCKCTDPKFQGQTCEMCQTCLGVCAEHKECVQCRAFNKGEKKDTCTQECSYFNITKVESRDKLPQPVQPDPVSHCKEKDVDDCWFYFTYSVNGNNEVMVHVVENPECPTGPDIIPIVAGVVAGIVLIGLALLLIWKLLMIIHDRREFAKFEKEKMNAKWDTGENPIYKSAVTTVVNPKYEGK", "assay": "VLA-4 (α4β1) dependent cell adhesion to VCAM-1", "format": "cell-based", "details": "FIG. 3; VCAM-1 and Cmpd 1 versus BSA, VCAM-1 alone, Ig and anti-integrin antibodies", "source_text": "Referring now to FIG. 3, a histogram is shown of induced VLA-4 (α4β1) dependent cell adhesion to VCAM-1 in the presence of BSA, VCAM-1, VCAM-1 and a compound of Formula (I) (Cmpd 1), Ig, anti-α4, anti-αL, anti-β1, and anti-β2.\nActivating all integrins is necessary for firm endothelial cell adhesion for extravasation."}, "[4]": {"test_system": "CT26 colon cancer syngeneic tumor", "assay": "Study 2: CT26 syngeneic tumor model in Balb/c mice", "format": "in vivo, Mouse (Mus musculus)", "details": "for % Tumor Growth Inhibition: 1 mg/kg IP QD at 4 h; for Average Tumor Volume, Mean: 1 mg/kg IP QD", "method": "as §1, §2, §3, §4, §5\nThe test agent, Compound 1 was evaluated in CT26 syngeneic tumor model in Balb/c mice. Compound 1 was administered in mice when the starting tumor volume reached 110±6.9 mm^3 seven days after implantation of CT26 cells."}},
  "note": "Marks after values point to notes of the source that are not given here.",
  "data": [
    {"compound": "O=C(OCCOCCOCCOC(=O)N(Cc1cccs1)Cc1cccs1)N(Cc1cccs1)Cc1cccs1", "note": "[Compound 1, 3-oxo-1-(2-thienyl)-2-(2-thienylmethyl)-4,7,10-trioxa-2-azadodecan-12-yl bis(2-thienylmethyl)carbamate]", "values": [
      {"measurement": "% Tumor Growth Inhibition", "setting": "[1]; Study 1, 1 mg/kg IP QD at 4 h, Day 4", "value": 36.1, "unit": "%"},
      {"measurement": "% Tumor Growth Inhibition", "setting": "[1]; Study 1, 1 mg/kg IP QD at 4 h, Day 6", "value": 41.4, "unit": "%"},
      {"measurement": "% Tumor Growth Inhibition", "setting": "[1]; Study 1, 1 mg/kg IP QD at 4 h, Day 8", "value": 61.5, "unit": "%"},
      {"measurement": "% Tumor Growth Inhibition", "setting": "[1]; Study 1, 1 mg/kg IP QD at 4 h, Day 11", "value": 64.4, "unit": "%"},
      {"measurement": "% Tumor Growth Inhibition", "setting": "[1]; Study 1, 1 mg/kg IP QD at 4 h, Day 13", "value": 55.4, "unit": "%"},
      {"measurement": "% Tumor Growth Inhibition", "setting": "[1]; Study 1, 20 mg/kg PO QD at 4 h, Day 4", "value": "−6.1", "unit": "%"},
      {"measurement": "% Tumor Growth Inhibition", "setting": "[1]; Study 1, 20 mg/kg PO QD at 4 h, Day 6", "value": 16.5, "unit": "%"},
      {"measurement": "% Tumor Growth Inhibition", "setting": "[1]; Study 1, 20 mg/kg PO QD at 4 h, Day 8", "value": 38.2, "unit": "%"},
      {"measurement": "% Tumor Growth Inhibition", "setting": "[1]; Study 1, 20 mg/kg PO QD at 4 h, Day 11", "value": 42.2, "unit": "%"},
      {"measurement": "% Tumor Growth Inhibition", "setting": "[1]; Study 1, 20 mg/kg PO QD at 4 h, Day 13", "value": 36.2, "unit": "%"},
      {"measurement": "tolerability in term of body weights of animals", "setting": "[1]; Study 1, oral (20 mg/kg QD) and intraperitoneal (1 mg/kg QD) routes", "value": "well tolerated"},
      {"measurement": "growth of established CT26 tumors", "setting": "[1]; single agent, orally or intraperitoneally once daily for up to 30 days", "value": "delayed the growth"},
      {"measurement": "Average Tumor Volume, Mean", "setting": "[2]; 1 mg/kg BID (IP), Day 7", "value": 91, "unit": "mm^3"},
      {"measurement": "Average Tumor Volume, Mean", "setting": "[2]; 1 mg/kg BID (IP), Day 10", "value": 159, "unit": "mm^3"},
      {"measurement": "Average Tumor Volume, Mean", "setting": "[2]; 1 mg/kg BID (IP), Day 12", "value": 269, "unit": "mm^3"},
      {"measurement": "Average Tumor Volume, Mean", "setting": "[2]; 1 mg/kg BID (IP), Day 14", "value": "342^‡ mm^3"},
      {"measurement": "Average Tumor Volume, Mean", "setting": "[2]; 1 mg/kg BID (IP), Day 16", "value": "512^‡‡ mm^3"},
      {"measurement": "Average Tumor Volume, Mean", "setting": "[2]; 1 mg/kg BID (IP), Day 18", "value": "689^‡‡ mm^3"},
      {"measurement": "Average Tumor Volume, Mean", "setting": "[2]; 1 mg/kg IP QD, Day 7", "value": 96, "unit": "mm^3"},
      {"measurement": "Average Tumor Volume, Mean", "setting": "[2]; 1 mg/kg IP QD, Day 10", "value": 193, "unit": "mm^3"},
      {"measurement": "Average Tumor Volume, Mean", "setting": "[2]; 1 mg/kg IP QD, Day 12", "value": 312, "unit": "mm^3"},
      {"measurement": "Average Tumor Volume, Mean", "setting": "[2]; 1 mg/kg IP QD, Day 14", "value": "415^† mm^3"},
      {"measurement": "Average Tumor Volume, Mean", "setting": "[2]; 1 mg/kg IP QD, Day 16", "value": "566^†† mm^3"},
      {"measurement": "Average Tumor Volume, Mean", "setting": "[2]; 1 mg/kg IP QD, Day 18", "value": "768^‡ mm^3"},
      {"measurement": "inhibition in tumor volume (TGI)", "setting": "[2]; IP BID (1 mg/kg), day 14, p<0.01", "value": 57.6, "unit": "%"},
      {"measurement": "inhibition in tumor volume (TGI)", "setting": "[2]; IP QD (1 mg/kg), day 14, p<0.05", "value": 46.1, "unit": "%"},
      {"measurement": "cell migration, ICAM-1", "setting": "ICAM-1", "value": "migration enhancement"},
      {"measurement": "autoimmune toxicity", "setting": "[3]", "value": "no autoimmune toxicity"},
      {"measurement": "safety margin (STD 10)", "setting": "[3]", "value": "> 300 times therapeutic exposure"},
      {"measurement": "bound cells, adhesion to VCAM-1", "setting": "VLA-4/VCAM-1", "value": "highest bound cells"},
      {"measurement": "% Tumor Growth Inhibition", "setting": "[4]; Day 2", "value": "−6.6", "unit": "%"},
      {"measurement": "% Tumor Growth Inhibition", "setting": "[4]; Day 4", "value": 33.0, "unit": "%"},
      {"measurement": "% Tumor Growth Inhibition", "setting": "[4]; Day 6", "value": 38.9, "unit": "%"},
      {"measurement": "% Tumor Growth Inhibition", "setting": "[4]; Day 8", "value": 31.6, "unit": "%"},
      {"measurement": "% Tumor Growth Inhibition", "setting": "[4]; Day 10", "value": 33.5, "unit": "%"},
      {"measurement": "% Tumor Growth Inhibition", "setting": "[4]; Day 13", "value": 46.0, "unit": "%"},
      {"measurement": "Average Tumor Volume, Mean", "setting": "[4]; Day 1", "value": 111, "unit": "mm^3"},
      {"measurement": "Average Tumor Volume, Mean", "setting": "[4]; Day 2", "value": 171, "unit": "mm^3"},
      {"measurement": "Average Tumor Volume, Mean", "setting": "[4]; Day 4", "value": 244, "unit": "mm^3"},
      {"measurement": "Average Tumor Volume, Mean", "setting": "[4]; Day 6", "value": 343, "unit": "mm^3"},
      {"measurement": "Average Tumor Volume, Mean", "setting": "[4]; Day 8", "value": 545, "unit": "mm^3"},
      {"measurement": "Average Tumor Volume, Mean", "setting": "[4]; Day 10", "value": "744* mm^3"},
      {"measurement": "Average Tumor Volume, Mean", "setting": "[4]; Day 13", "value": "1038^‡ mm^3"}
    ]}
  ]
}
